Results published in the supplement of paper PMC10307832.

Columns and labels:
Test in all cases: relative viability (nuclei count vs DMSO), 5 days (fraction); higher = more cells survive
NCI-H1793 = system: NCI-H1793
Method in brief: (§1)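 After 5 days of treatment, lung cancer cells in 1536-well plates were fixed and stained in a single step (final 0.05% Triton X-100, 1% formaldehyde, 1 ug/ml Hoechst) and their nuclei counted on 4× images. Treatment had been applied by pin tool the day after seeding as one drug alone or as a fixed anchor-drug dose with five library-drug doses (not always all listed) in √10 steps. Relative viability is the nuclei count of treated wells divided by that of vehicle wells, and values are medians of duplicate plates.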

A-427 = system: A-427
Method in brief: as §1

NCI-H727 = system: NCI-H727
Method in brief: as §1

NCI-H596 = system: NCI-H596
Method in brief: as §1

H3255 = system: H3255
Method in brief: as §1

SW 1573 = system: SW 1573
Method in brief: as §1

LC-2-ad = system: LC-2-ad
Method in brief: as §1

COR-L23 = system: COR-L23
Method in brief: as §1

LK-2 = system: LK-2
Method in brief: as §1

LU99A = system: LU99A
Method in brief: as §1

NCI-H1563 = system: NCI-H1563
Method in brief: as §1

NCI-H2228 = system: NCI-H2228
Method in brief: as §1

LCLC-103H = system: LCLC-103H
Method in brief: as §1

NCI-H1650 = system: NCI-H1650
Method in brief: as §1

PC-14 = system: PC-14
Method in brief: as §1

LCLC-97TM1 = system: LCLC-97TM1
Method in brief: as §1

NCI-H460 = system: NCI-H460
Method in brief: as §1

201T = system: 201T
Method in brief: as §1

NCI-H2347 = system: NCI-H2347
Method in brief: as §1

SW 900 = system: SW 900
Method in brief: as §1

NCI-H23 = system: NCI-H23
Method in brief: as §1

## Cc1sc2c(c1C)C(c1ccc(Cl)cc1)=N[C@@H](CC(=O)OC(C)(C)C)c1nnc(C)n1-2 [JQ1] + Cc1nc(Nc2ncc(C(=O)Nc3c(C)cccc3Cl)s2)cc(N2CCN(CCO)CC2)n1 [Dasatinib] (partner 0.075 µM)
NCI-H1793; first compound 0.04 µM
  relative viability: 0.312
NCI-H1793; first compound 0.1265 µM
  relative viability: 0.345
NCI-H1793; first compound 0.4 µM
  relative viability: 0.435
NCI-H1793; first compound 1.265 µM
  relative viability: 0.385
NCI-H1793; first compound 4 µM
  relative viability: 0.418
A-427; first compound 0.04 µM
  relative viability: 0.759
A-427; first compound 0.1265 µM
  relative viability: 0.592
A-427; first compound 0.4 µM
  relative viability: 0.696
A-427; first compound 1.265 µM
  relative viability: 0.696
A-427; first compound 4 µM
  relative viability: 0.529
NCI-H727; first compound 0.04 µM
  relative viability: 0.354
NCI-H727; first compound 0.1265 µM
  relative viability: 0.555
NCI-H727; first compound 0.4 µM
  relative viability: 0.398
NCI-H727; first compound 1.265 µM
  relative viability: 0.295
NCI-H727; first compound 4 µM
  relative viability: 0.426
NCI-H596; first compound 0.04 µM
  relative viability: 0.671
NCI-H596; first compound 0.1265 µM
  relative viability: 0.456
NCI-H596; first compound 0.4 µM
  relative viability: 0.559
NCI-H596; first compound 1.265 µM
  relative viability: 0.281
NCI-H596; first compound 4 µM
  relative viability: 0.29
H3255; first compound 0.04 µM
  relative viability: 0.438
H3255; first compound 0.1265 µM
  relative viability: 0.319
H3255; first compound 0.4 µM
  relative viability: 0.504
H3255; first compound 1.265 µM
  relative viability: 0.317
H3255; first compound 4 µM
  relative viability: 0.269
SW 1573; first compound 0.04 µM
  relative viability: 0.486
SW 1573; first compound 0.1265 µM
  relative viability: 0.447
SW 1573; first compound 0.4 µM
  relative viability: 0.31
SW 1573; first compound 1.265 µM
  relative viability: 0.218
SW 1573; first compound 4 µM
  relative viability: 0.23
LC-2-ad; first compound 0.04 µM
  relative viability: 0.505
LC-2-ad; first compound 0.1265 µM
  relative viability: 0.472
LC-2-ad; first compound 0.4 µM
  relative viability: 0.219
LC-2-ad; first compound 1.265 µM
  relative viability: 0.178
LC-2-ad; first compound 4 µM
  relative viability: 0.191
COR-L23; first compound 0.04 µM
  relative viability: 0.507
COR-L23; first compound 0.1265 µM
  relative viability: 0.351
COR-L23; first compound 0.4 µM
  relative viability: 0.516
COR-L23; first compound 1.265 µM
  relative viability: 0.279
COR-L23; first compound 4 µM
  relative viability: 0.256
LK-2; first compound 0.04 µM
  relative viability: 0.254
LK-2; first compound 0.1265 µM
  relative viability: 0.156
LK-2; first compound 0.4 µM
  relative viability: 0.162
LK-2; first compound 1.265 µM
  relative viability: 0.108
LK-2; first compound 4 µM
  relative viability: 0.112
LU99A; first compound 0.04 µM
  relative viability: 0.551
LU99A; first compound 0.1265 µM
  relative viability: 0.378
LU99A; first compound 0.4 µM
  relative viability: 0.603
LU99A; first compound 1.265 µM
  relative viability: 0.207
LU99A; first compound 4 µM
  relative viability: 0.206
NCI-H1563; first compound 0.04 µM
  relative viability: 0.446
NCI-H1563; first compound 0.1265 µM
  relative viability: 0.405
NCI-H1563; first compound 0.4 µM
  relative viability: 0.533
NCI-H1563; first compound 1.265 µM
  relative viability: 0.443
NCI-H1563; first compound 4 µM
  relative viability: 0.362
NCI-H2228; first compound 0.04 µM
  relative viability: 0.416
NCI-H2228; first compound 0.1265 µM
  relative viability: 0.476
NCI-H2228; first compound 0.4 µM
  relative viability: 0.515
NCI-H2228; first compound 1.265 µM
  relative viability: 0.189
NCI-H2228; first compound 4 µM
  relative viability: 0.245
LCLC-103H; first compound 0.04 µM
  relative viability: 0.433
LCLC-103H; first compound 0.1265 µM
  relative viability: 0.418
LCLC-103H; first compound 0.4 µM
  relative viability: 0.464
LCLC-103H; first compound 1.265 µM
  relative viability: 0.327
LCLC-103H; first compound 4 µM
  relative viability: 0.266
NCI-H1650; first compound 0.04 µM
  relative viability: 0.313
NCI-H1650; first compound 0.1265 µM
  relative viability: 0.272
NCI-H1650; first compound 0.4 µM
  relative viability: 0.201
NCI-H1650; first compound 1.265 µM
  relative viability: 0.134
NCI-H1650; first compound 4 µM
  relative viability: 0.143
PC-14; first compound 0.04 µM
  relative viability: 0.283
PC-14; first compound 0.1265 µM
  relative viability: 0.187
PC-14; first compound 0.4 µM
  relative viability: 0.119
PC-14; first compound 1.265 µM
  relative viability: 0.14
PC-14; first compound 4 µM
  relative viability: 0.05
LCLC-97TM1; first compound 0.04 µM
  relative viability: 0.896
LCLC-97TM1; first compound 0.1265 µM
  relative viability: 0.906
LCLC-97TM1; first compound 0.4 µM
  relative viability: 0.645
LCLC-97TM1; first compound 1.265 µM
  relative viability: 0.694
LCLC-97TM1; first compound 4 µM
  relative viability: 0.352
NCI-H460; first compound 0.04 µM
  relative viability: 0.5
NCI-H460; first compound 0.1265 µM
  relative viability: 0.221
NCI-H460; first compound 0.4 µM
  relative viability: 0.201
NCI-H460; first compound 1.265 µM
  relative viability: 0.171
NCI-H460; first compound 4 µM
  relative viability: 0.075
201T; first compound 0.04 µM
  relative viability: 0.606
201T; first compound 0.1265 µM
  relative viability: 0.428
201T; first compound 0.4 µM
  relative viability: 0.508
201T; first compound 1.265 µM
  relative viability: 0.491
201T; first compound 4 µM
  relative viability: 0.372
NCI-H2347; first compound 0.04 µM
  relative viability: 0.273
NCI-H2347; first compound 0.1265 µM
  relative viability: 0.395
NCI-H2347; first compound 0.4 µM
  relative viability: 0.304
NCI-H2347; first compound 1.265 µM
  relative viability: 0.371
NCI-H2347; first compound 4 µM
  relative viability: 0.235
SW 900; first compound 0.04 µM
  relative viability: 0.521
SW 900; first compound 0.1265 µM
  relative viability: 0.456
SW 900; first compound 0.4 µM
  relative viability: 0.298
SW 900; first compound 1.265 µM
  relative viability: 0.193
SW 900; first compound 4 µM
  relative viability: 0.135
NCI-H23; first compound 0.04 µM
  relative viability: 0.666
NCI-H23; first compound 0.1265 µM
  relative viability: 0.656
NCI-H23; first compound 0.4 µM
  relative viability: 0.579
NCI-H23; first compound 1.265 µM
  relative viability: 0.275
NCI-H23; first compound 4 µM
  relative viability: 0.344
